Test results taken from paper PMC5024786 (Organic letters, 2015).

Molecular target: T1, ACC deaminase (1-aminocyclopropane-1-carboxylic acid deaminase) (Pseudomonas sp. ACP, UniProt Q00740)
T1 sequence (Q00740 1-338): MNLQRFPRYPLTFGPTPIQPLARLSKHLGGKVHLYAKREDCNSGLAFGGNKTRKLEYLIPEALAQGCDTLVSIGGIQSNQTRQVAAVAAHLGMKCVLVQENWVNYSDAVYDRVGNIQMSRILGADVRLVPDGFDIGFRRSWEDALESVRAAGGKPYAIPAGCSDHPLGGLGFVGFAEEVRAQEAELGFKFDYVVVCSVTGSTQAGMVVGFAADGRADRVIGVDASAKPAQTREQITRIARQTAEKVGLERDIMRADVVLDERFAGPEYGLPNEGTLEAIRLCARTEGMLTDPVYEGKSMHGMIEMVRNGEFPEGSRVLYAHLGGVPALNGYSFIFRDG
Format: biochemical

Compound: NC1(C(=O)O)CC1(F)F (racemic) [compound 3, 1-Amino-2,2-difluorocyclopropane-1-carboxylic acid]
- Ki: 120 ± 40 nM
